The record followed here is patent US20240327364A1, “THERAPEUTIC TARGETING OF GPR68 TO INDUCE FERROPTOSIS” (University Of Maryland, Baltimore, priority 2023, published 2024).

For one assay, the target named is T1, HPK1 (Homo sapiens, UniProt Q92918).
T1 construct: purchased DiscoveRx (Fremont, CA)
Put plainly: KinomeScan. It counts as binding. The following applies: read-out: % Control.

A further assay has as its target T2, KIT(L576P) (Homo sapiens, UniProt P10721, L576P).
T2 construct: purchased DiscoveRx
Put plainly: KinomeScan. The conditions noted are these: read-out: % Control. It counts as binding.

In another assay the target is T3, IKK-alpha (Homo sapiens, UniProt O15111).
T3 construct: purchased DiscoveRx (Fremont, CA)
T3 sequence (O15111 whole entry): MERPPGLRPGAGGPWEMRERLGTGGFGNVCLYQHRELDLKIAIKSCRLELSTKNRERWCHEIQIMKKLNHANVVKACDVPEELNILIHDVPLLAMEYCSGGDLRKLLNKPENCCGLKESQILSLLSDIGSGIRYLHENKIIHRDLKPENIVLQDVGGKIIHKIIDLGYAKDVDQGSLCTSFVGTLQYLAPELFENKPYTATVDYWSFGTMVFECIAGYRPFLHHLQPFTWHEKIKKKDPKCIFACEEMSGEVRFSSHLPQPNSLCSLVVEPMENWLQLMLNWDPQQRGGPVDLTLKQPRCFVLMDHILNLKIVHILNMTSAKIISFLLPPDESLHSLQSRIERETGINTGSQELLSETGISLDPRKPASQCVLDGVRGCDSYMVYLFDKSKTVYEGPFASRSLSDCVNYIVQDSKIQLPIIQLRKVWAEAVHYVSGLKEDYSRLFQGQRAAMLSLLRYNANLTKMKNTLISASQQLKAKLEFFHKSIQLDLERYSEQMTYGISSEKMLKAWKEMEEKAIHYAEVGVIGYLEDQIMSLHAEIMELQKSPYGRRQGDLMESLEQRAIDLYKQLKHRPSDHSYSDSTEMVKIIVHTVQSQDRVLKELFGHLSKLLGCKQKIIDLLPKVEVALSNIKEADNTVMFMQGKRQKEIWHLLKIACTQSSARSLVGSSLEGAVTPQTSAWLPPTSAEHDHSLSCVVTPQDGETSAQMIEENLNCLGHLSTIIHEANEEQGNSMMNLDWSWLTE
Put plainly: KinomeScan. It counts as binding. The conditions noted are these: read-out: % Control.

A further assay addresses T4, ADCK4 (Homo sapiens, UniProt Q96D53).
T4 construct: purchased DiscoveRx (Fremont, CA)
Put plainly: KinomeScan. It counts as binding. The following applies: read-out: % Control.

The target in a further assay is T5, CCK1 (Homo sapiens, UniProt P32238).
T5 construct: host or cells: Chem-1 cells with promiscuous Gα15
T5 sequence (P32238 whole entry): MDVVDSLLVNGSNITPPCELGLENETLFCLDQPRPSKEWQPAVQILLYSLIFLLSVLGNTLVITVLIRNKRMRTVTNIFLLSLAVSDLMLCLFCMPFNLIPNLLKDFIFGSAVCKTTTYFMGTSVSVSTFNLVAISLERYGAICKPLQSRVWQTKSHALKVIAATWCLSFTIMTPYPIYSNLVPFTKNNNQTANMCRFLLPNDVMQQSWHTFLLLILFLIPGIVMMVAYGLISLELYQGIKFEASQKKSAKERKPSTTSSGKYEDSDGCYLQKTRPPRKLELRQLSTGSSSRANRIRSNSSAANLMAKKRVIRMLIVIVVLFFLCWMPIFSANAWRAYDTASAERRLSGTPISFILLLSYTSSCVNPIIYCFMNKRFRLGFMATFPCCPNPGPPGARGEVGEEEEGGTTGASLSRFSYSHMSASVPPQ
Put plainly: GPCR Profiler. It counts as cell-based.

A further assay deals with T6, V1A (Homo sapiens, UniProt P37288).
T6 construct: host or cells: Chem-1 cells with Gα15
T6 sequence (P37288 whole entry): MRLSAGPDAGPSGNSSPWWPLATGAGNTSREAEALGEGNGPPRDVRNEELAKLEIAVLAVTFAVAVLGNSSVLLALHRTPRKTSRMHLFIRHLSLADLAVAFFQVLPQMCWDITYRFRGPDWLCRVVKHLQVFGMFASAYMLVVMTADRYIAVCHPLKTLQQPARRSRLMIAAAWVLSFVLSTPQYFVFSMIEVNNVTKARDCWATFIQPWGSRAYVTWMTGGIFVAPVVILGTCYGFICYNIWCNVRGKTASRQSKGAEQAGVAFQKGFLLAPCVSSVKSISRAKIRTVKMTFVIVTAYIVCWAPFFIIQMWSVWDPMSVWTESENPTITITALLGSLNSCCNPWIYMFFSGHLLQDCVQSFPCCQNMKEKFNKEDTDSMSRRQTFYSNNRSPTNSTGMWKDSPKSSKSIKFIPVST
Put plainly: GPCR Profiler. It counts as cell-based.

For another assay, the target named is T7, GRK7 (Homo sapiens, UniProt Q8WTQ7).
T7 construct: purchased DiscoveRx (Fremont, CA)
Put plainly: KinomeScan. It counts as binding. The following applies: read-out: % Control.

The target in assay [1] is T8, ABL1(Y253F)-phosphorylated (Homo sapiens, UniProt P00519, Y253F).
T8 construct: purchased DiscoveRx
In words: KinomeScan. It counts as binding. The conditions noted are these: read-out: % Control.

The target in another assay is T9, CCR9 (Homo sapiens, UniProt P51686).
T9 construct: host or cells: Chem-1 cells with Gα15
T9 sequence (P51686 whole entry, species assumed): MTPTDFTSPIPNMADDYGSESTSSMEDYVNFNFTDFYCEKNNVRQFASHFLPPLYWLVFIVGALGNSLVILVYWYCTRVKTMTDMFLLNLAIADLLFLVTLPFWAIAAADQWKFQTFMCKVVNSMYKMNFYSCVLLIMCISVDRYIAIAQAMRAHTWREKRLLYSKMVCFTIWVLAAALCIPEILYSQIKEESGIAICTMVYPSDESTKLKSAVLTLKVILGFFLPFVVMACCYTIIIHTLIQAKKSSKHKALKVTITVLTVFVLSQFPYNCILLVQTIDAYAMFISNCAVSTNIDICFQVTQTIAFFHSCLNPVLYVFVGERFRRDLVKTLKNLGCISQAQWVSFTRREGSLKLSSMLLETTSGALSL
Put plainly: GPCR Profiler. It counts as cell-based.

The target of another assay is Lpa1 (Homo sapiens, UniProt Q92633). In words: Lpa1 activity of OGM analogs (Table 5). It counts as cell-based. How it is done:
GPCR profiling assays were performed by Millipore (St. Louis, MO) using in cells expressing Gα15, a promiscuous G protein that enhances GPCR coupling to downstream Ca2+ signaling pathways. KinomeScan was conducted by DiscoveRx (Fremont, CA). Since GPCRs represent >30% of targets for FDA-approved small molecules and are known to modulate cell migration, activity against 158 GPCRs was assessed based on their chemical structures. GPCRs (158) were tested for agonist and antagonist activity at 10 μM. […] Chemical segregation analysis of zebrafish phenotype was conducted to further identify the inhibitory activity responsible for the zebrafish phenotype. […] The identities of the R groups in Formula A are shown below in Table 5.

The next assay deals with T10, PIK3C2B (Homo sapiens, UniProt O00750).
T10 construct: purchased DiscoveRx (Fremont, CA)
In words: KinomeScan. It counts as binding. The following applies: read-out: % Control.

For a further assay, the target named is T11, ICK (Homo sapiens, UniProt Q9UPZ9).
T11 construct: purchased DiscoveRx (Fremont, CA)
In words: KinomeScan. It counts as binding. The following applies: read-out: % Control.

A further assay concerns the target T12, GPR91 (Homo sapiens, UniProt Q9BXA5).
T12 construct: host or cells: Chem-1 cells with promiscuous Gα15
In words: GPCR Profiler. It counts as cell-based.

Another assay has as its target T13, CXCR2 (Homo sapiens, UniProt P25025).
T13 construct: host or cells: Chem-1 cells with Gα15
Put plainly: GPCR Profiler. It counts as cell-based.

The target of another assay is T14, JNK3 (Homo sapiens, UniProt P53779).
T14 construct: purchased DiscoveRx
Put plainly: KinomeScan. The following applies: read-out: % Control. It counts as binding.

The next assay concerns the target T15, CDC2L2 (Homo sapiens, UniProt Q9UQ88).
T15 construct: purchased DiscoveRx (KinomeScan service)
In words: KinomeScan. It counts as binding. The conditions noted are these: read-out: % Control.

The target of a further assay is T16, FYN (Homo sapiens, UniProt P06241).
T16 construct: purchased DiscoveRx (Fremont, CA)
Put plainly: KinomeScan. It counts as binding. The conditions noted are these: read-out: % Control.

The target of a further assay is T17, ERK1 (Homo sapiens, UniProt P27361).
T17 construct: purchased DiscoveRx (Fremont, CA)
T17 sequence (P27361 whole entry): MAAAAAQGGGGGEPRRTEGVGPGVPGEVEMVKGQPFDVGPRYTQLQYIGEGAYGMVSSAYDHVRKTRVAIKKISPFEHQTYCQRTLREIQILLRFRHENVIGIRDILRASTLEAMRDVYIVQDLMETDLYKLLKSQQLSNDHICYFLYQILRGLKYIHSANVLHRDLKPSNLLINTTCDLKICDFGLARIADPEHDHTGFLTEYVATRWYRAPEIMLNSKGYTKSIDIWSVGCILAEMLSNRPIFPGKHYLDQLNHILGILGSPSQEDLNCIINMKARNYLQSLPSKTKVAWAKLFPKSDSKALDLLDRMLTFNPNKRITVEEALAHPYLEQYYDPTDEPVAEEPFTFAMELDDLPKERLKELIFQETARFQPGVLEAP
In words: KinomeScan. It counts as binding. The conditions noted are these: read-out: % Control.

The target of a further assay is T18, p38-alpha (Homo sapiens, UniProt Q16539).
T18 construct: purchased DiscoveRx
Put plainly: KinomeScan. It counts as binding. The conditions noted are these: read-out: % Control.

The target in a further assay is T19, PLK4 (Homo sapiens, UniProt O00444).
T19 construct: purchased DiscoveRx (Fremont, CA)
Put plainly: KinomeScan. It counts as binding. The conditions noted are these: read-out: % Control.

For the next assay, the system named is REC-1. In words: Cell Titer-Glo viability, B-cell lymphoma. It counts as cell-based. The conditions noted are these: 72 hours. How it is done:
OGM2 kills wide variety of cancer cell types. Cell sensitivity can be classified in to Very Sensitive (LC50<2 μM), Sensitive (LC50=2 to 10 μM), Mildly Sensitive (LC50>10 μM), and Refractory (no killing at 10 μM). The listed established cell were incubated with OGM2 at 2 μM or 10 μM for 72 hours under standard cell culture conditions, and relative cell number was assessed using Cell Titer-Glo Luminescent Cell Viability Assay (Promega™) following the manufacturer's instructions. Luminescence was determined using a Cytation 5 reader and Gen5 software package (BioTek™).
Cancer cells, which are very sensitive to killing by OGM2 (LCs <2 μM), with reported mRNA expression of GPR68 and the related proton sensing receptor GPR4. LC50's (concentrations causing 50% lethality) were determined using CellTiter-Glo (Promega™, G7570). Cells were plated in 12-well plates (CELLTREAT Scientific Products, 229112) in 1 ml of DMEM with high glucose, GlutaMAX, HEPES, or RPMI 1640 with Penicillin-Streptomycin (ThermoFisher™, 10564029, 11875119 and 15140122) and 10% FBS. Cells were incubated overnight at 37° C. in 5% CO2. Then 1 mL of fresh media was added with DMSO, OGM, or positive control (Erastin; APExBIO Technology, LLC, B1524) and cells incubated for 3 days. On the third day, all media was removed, cells were rinsed with 1×PBS, PBS was removed, and 200 μL of 1× Passive Lysis Buffer (Promega™, E1941) was added to each well. […]. […] Plates were briefly spun down and read on a GloMax-Multi Detection System (Promega™).
The cells listed in the tables above were incubated with OGM2 at 2 μM or 10 μM for 72 hours under standard cell culture conditions, and relative cell number was assessed using Cell Titer-Glo Luminescent Cell Viability Assay (Promega™) following the manufacturer's instructions. Luminescence was determined using a Cytation 5 reader and Gen5 software package (BioTek™). […] The consensus normalized expression value (“nTPM”=normalize transcript per million) was calculated as the maximum nTPM value for each gene in the two data sources.
Background: In ATP-based viability assays light output follows the ATP content of the culture.

T12 sequence (Q9BXA5 whole entry, species assumed): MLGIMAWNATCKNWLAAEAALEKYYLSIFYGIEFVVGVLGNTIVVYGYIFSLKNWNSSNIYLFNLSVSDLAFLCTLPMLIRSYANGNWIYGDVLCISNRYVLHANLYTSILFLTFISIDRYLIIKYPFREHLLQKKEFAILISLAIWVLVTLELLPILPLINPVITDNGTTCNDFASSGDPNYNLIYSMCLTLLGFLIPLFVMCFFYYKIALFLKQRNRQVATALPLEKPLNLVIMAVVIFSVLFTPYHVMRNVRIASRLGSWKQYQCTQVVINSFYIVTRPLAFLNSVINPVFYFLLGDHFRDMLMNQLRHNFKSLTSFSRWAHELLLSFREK
T13 sequence (P25025 whole entry, species assumed): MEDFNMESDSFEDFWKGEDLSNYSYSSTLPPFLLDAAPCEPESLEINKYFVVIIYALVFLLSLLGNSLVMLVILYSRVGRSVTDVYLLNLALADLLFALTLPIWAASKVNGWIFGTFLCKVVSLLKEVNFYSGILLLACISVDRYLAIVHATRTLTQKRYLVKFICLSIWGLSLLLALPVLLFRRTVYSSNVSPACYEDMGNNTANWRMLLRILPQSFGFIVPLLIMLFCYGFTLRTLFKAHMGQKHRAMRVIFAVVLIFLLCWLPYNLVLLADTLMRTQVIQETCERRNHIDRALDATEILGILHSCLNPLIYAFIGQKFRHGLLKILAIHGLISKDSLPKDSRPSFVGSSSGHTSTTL
T1 sequence (Q92918 whole entry): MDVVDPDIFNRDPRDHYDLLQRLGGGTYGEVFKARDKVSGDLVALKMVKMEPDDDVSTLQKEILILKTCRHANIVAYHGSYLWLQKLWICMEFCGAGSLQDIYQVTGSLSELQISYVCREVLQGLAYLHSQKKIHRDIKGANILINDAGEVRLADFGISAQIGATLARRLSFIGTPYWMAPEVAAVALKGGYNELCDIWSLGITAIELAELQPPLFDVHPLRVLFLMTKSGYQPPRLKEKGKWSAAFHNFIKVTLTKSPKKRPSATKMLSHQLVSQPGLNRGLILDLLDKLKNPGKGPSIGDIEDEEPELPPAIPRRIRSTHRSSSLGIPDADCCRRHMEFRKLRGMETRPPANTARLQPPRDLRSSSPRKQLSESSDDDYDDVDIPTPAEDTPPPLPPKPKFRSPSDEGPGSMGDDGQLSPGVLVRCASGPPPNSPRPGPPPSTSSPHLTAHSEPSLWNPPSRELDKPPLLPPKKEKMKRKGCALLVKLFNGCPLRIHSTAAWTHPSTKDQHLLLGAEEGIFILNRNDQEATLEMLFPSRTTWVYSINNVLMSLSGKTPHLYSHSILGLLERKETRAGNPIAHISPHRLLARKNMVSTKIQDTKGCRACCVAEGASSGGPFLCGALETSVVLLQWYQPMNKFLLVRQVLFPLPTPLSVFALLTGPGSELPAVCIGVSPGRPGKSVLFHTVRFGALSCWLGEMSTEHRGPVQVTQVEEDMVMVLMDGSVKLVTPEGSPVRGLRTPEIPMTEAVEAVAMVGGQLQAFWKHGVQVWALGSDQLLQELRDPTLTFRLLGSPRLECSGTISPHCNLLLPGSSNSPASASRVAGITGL
T15 sequence (Q9UQ88 whole entry): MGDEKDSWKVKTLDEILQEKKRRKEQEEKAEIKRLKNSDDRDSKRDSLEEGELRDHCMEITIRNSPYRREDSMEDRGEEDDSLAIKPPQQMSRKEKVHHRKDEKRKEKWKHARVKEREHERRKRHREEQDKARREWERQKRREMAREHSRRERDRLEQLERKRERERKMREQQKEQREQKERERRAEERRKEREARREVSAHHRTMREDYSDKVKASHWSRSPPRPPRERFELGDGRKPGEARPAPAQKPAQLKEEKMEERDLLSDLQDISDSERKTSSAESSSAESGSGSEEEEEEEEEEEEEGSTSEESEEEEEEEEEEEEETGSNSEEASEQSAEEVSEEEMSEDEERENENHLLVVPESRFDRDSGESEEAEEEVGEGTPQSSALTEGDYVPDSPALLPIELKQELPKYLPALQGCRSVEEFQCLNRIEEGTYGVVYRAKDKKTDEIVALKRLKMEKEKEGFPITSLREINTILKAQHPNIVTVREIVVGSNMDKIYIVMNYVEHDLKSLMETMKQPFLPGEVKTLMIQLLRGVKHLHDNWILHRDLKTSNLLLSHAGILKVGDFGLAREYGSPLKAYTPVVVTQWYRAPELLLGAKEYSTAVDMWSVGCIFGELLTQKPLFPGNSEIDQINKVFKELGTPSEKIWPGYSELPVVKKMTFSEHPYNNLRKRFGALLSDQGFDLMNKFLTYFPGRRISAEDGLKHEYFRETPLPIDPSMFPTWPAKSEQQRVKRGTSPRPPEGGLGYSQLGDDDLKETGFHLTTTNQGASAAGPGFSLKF

In the case of `CCc1ccc2c(c1)C1(NN=C(c3cccc4ccccc34)S1)C(=O)N2` (stereo not shown) [OGM1, 5-ethyl-5′-naphthalen-1-ylspiro[1H-indole-3,2′-3H-1,3,4-thiadiazole]-2-one], the remaining binding at 10 µM at HPK1 came to 100%; on KIT(L576P), 82%; on IKK-alpha, 83%; at ADCK4, 70%; at GRK7, 73%; in assay [1] it was 80%. Besides, the remaining binding at 10 µM amounted to 95% on PIK3C2B; 81% on ICK; 82% at JNK3; 93% on CDC2L2; 100% at FYN; 100% on ERK1. In addition, the remaining binding at 10 µM at p38-alpha is 54%; on PLK4 it was 71%. The Antagonism at CCK1 (10 uM) is recorded as 1.9; on V1A (10 uM), 12.3; on CCR9 (10 uM) it was 0.6; at GPR91 (10 uM), −5.4; at CXCR2 (10 uM) it was −3.1. In addition, the Agonism at CCK1 (12.5 uM) came out at 0.8; at V1A (12.5 uM) it was 0.1; at CCR9 (12.5 uM) it was 0.4; at GPR91 (12.5 uM), 1.2; at CXCR2 (12.5 uM), 0.5. On Lpa1, this compound yielded an IC50 of 8.7 µM.
For the compound `CCc1ccc2c(c1)C1(NN=C(c3ccccc3)S1)C(=O)N2` (stereo not shown) [OGM2], in the assay on REC-1, the “% Survival 2 μM OGM” value is 0.7% and the “% Survival 10 μM OGM” value is on record as 0.0%. Besides, in the assay on REC-1 (Homo sapiens, Rec1, read-out: LC50 (the source's name)), the CC50 was less than 2 µM.

The term IC50 denotes the concentration that gives 50% inhibition. A higher IC50 goes with lower potency.
